34 compounds from patent US20250129031A1, “1,2,3-TRIAZOLE CARBONYL SULFONYLAMIDE COMPOUNDS AND USE THEREOF” (PI INDUSTRIES LTD., priority 2022, published 2025) can be followed below.

The test system of this experiment is Meloidogyne incognita. Nature of the experiment: Meloidogyne incognita test: gall rating on cucumber plants in pots after soil application. The class given is in vivo. More on the design: key: 0: no galls; 1: very few small galls; 2: numerous small galls; 3: numerous small galls of which some are grown together; 4: numerous small and some big galls; 25% of roots severely galled; 6: 50% of roots severely galled; 75% of roots severely galled; 8: no healthy roots but plant is still green; 9: roots rotting and plant dying; 10: plant and roots dead. The following applies: 1000 ppm applied to soil inoculated with 5000 eggs & J2s; cucumber seedlings; rated 30 days after application; 0-10 scale (Zeck 1971); untreated check up to 8. As to the method:
Meloidogyne incognita Test:
The trial pots were filled with soil containing a mixture of sand:soil:cocopeat in a ratio of 1:1:1. To the soil of each pot 5 mL of a nematode suspension (Meloidogyne incognita, mix of 5000 eggs & J2s) was added. One hour later the respective test compound at the stated concentration was applied to each pot. 10 days old cucumber seedlings were transplanted into the pots one day after the application. The cucumber plants were allowed to grow at a temperature of 27° C. under greenhouse conditions. The evaluation of the gall rating was recorded 30 days after the application. The plants were carefully uprooted and the roots were thoroughly washed. The gall rating was done on a 0-10 scale as described by Zeck (1971) and shown below: • 0=no galls • 1=very few small galls • 2=numerous small galls • 3=numerous small galls of which some are grown together • 4=numerous small and some big galls • 5=25% of roots severely galled • 6=50% of roots severely galled • 7=75% of roots severely galled • 8=no healthy roots but plant is still green • 9=roots rotting and plant dying • 10=plant and roots dead

As to `CCc1c(C(=O)NS(=O)(=O)c2cc(OC)ccc2Cl)nnn1-c1ccc(OC(F)(F)F)cc1Cl` [Compound 336, 1-(2-chloro-4-(trifluoromethoxy)phenyl)-N-((2-chloro-5-methoxyphenyl)sulfonyl)-5-ethyl-1H-1,2,3-triazole-4-carboxamide], the gall rating scale is given as 4.
For `Cc1c(C(=O)NS(=O)(=O)c2ccccc2C(F)(F)F)nnn1-c1ccc(Cl)cc1Cl` [Compound 241], the gall rating scale came out at 4.
As to `COc1ccc(Cl)c(S(=O)(=O)NC(=O)c2nnn(-c3ccc(F)cc3Cl)c2C)c1` [Compound 242], the gall rating scale is 4.
As for `Cc1c(C(=O)NS(=O)(=O)c2ccc(F)cc2F)nnn1-c1cc(Cl)c(Cl)cc1Cl` [Compound 683], the figure is 4; as for `O=C(NS(=O)(=O)c1ccccc1C(F)(F)F)c1nnn(-c2ccc(OC(F)(F)F)cc2Cl)c1C1CC1` [Compound 228], 4.
The same measure for `O=C(NS(=O)(=O)c1cc(C(F)(F)F)ccc1Cl)c1nnn(-c2ccc(OC(F)(F)F)cc2Cl)c1C(F)(F)F` [Compound 171, 1-(2-chloro-4-(trifluoromethoxy)phenyl)-N-((2-chloro-5-(trifluoromethyl)phenyl)sulfonyl)-5-(trifluoromethyl)-1H-1,2,3-triazole-4-carboxamide]: 4; for `Cc1c(C(=O)NS(=O)(=O)c2cc(Cl)ccc2Cl)nnn1-c1ccc(OC(F)F)cc1Cl` [Compound 666]: 4; for `Cc1c(C(=O)NS(=O)(=O)c2c(F)cc(F)cc2F)nnn1-c1ccc(Cl)cc1Cl` [Compound 281, 1-(2,4-dichlorophenyl)-5-methyl-N-((2,4,6-trifluorophenyl)sulfonyl)-1H-1,2,3-triazole-4-carboxamide]: 4.
The compound `O=C(NS(=O)(=O)c1cc(Cl)ccc1Cl)c1nnn(-c2cc(Cl)ccc2Cl)c1C(F)(F)F` [Compound 371, 1-(2,5-dichlorophenyl)-N-((2,5-dichlorophenyl)sulfonyl)-5-(trifluoromethyl)-1H-1,2,3-triazole-4-carboxamide] registered a gall rating scale of 4.
The same measure for `N#Cc1ccc(-n2nnc(C(=O)NS(=O)(=O)c3cc(Cl)c(F)cc3F)c2C(F)(F)F)c(F)c1` [Compound 610, N-((5-chloro-2,4-difluorophenyl)sulfonyl)-1-(4-cyano-2-fluorophenyl)-5-(trifluoromethyl)-1H-1,2,3-triazole-4-carboxamide]: 4.
Turning to `N#Cc1ccc(-n2nnc(C(=O)NS(=O)(=O)c3ccccc3Cl)c2C(F)(F)F)c(F)c1` [Compound 563, N-((2-chlorophenyl)sulfonyl)-1-(4-cyano-2-fluorophenyl)-5-(trifluoromethyl)-1H-1,2,3-triazole-4-carboxamide], the gall rating scale came out at 4.
Regarding `Cc1c(C(=O)NS(=O)(=O)c2c(F)cc(F)cc2F)nnn1-c1cc(Cl)cc(C(F)(F)F)c1` [Compound 97], the gall rating scale came out at 4.
As for `Cc1c(C(=O)NS(=O)(=O)c2ccccc2C(F)(F)F)nnn1-c1ccc(OC(F)F)cc1Cl` [Compound 669], the figure is 4; as for `Cc1c(C(=O)NS(=O)(=O)c2ccccc2OC(F)(F)F)nnn1-c1cc(Cl)cc(Cl)c1` [Compound 17], 4.
As for `Cc1c(C(=O)NS(=O)(=O)c2ccccc2F)nnn1-c1ccc(OC(F)(F)F)cc1Cl` [Compound 143], the figure is 4; as for `Cc1c(C(=O)NS(=O)(=O)c2cc(Cl)ccc2F)nnn1-c1ccc(F)cc1F` [Compound 691], 4.
The same measure for `Cc1c(C(=O)NS(=O)(=O)c2ccc(F)cc2F)nnn1-c1ccc(Cl)cc1Cl` [Compound 279, 1-(2,4-dichlorophenyl)-N-((2,4-difluorophenyl)sulfonyl)-5-methyl-1H-1,2,3-triazole-4-carboxamide]: 4.
Compound `Cc1c(C(=O)NS(=O)(=O)c2ccccc2C(F)(F)F)nnn1-c1cc(Cl)c(Cl)cc1Cl` [Compound 657] came in with a gall rating scale of 4.
Turning to `O=C(NS(=O)(=O)c1cc(Cl)ccc1Cl)c1nnn(-c2ccc(OC(F)(F)F)cc2Cl)c1C1CC1` [Compound 229, 1-(2-chloro-4-(trifluoromethoxy)phenyl)-5-cyclopropyl-N-((2,5-dichlorophenyl)sulfonyl)-1H-1,2,3-triazole-4-carboxamide], the gall rating scale was found to be 4.
The same measure for `O=C(NS(=O)(=O)c1ccc(F)cc1F)c1nnn(-c2ccc(Cl)cc2Cl)c1C(F)(F)F` [Compound 218]: 4; for `Cc1c(C(=O)NS(=O)(=O)c2ccccc2F)nnn1-c1ccc(F)cc1Cl` [Compound 246]: 4.
`Cc1ccccc1S(=O)(=O)NC(=O)c1nnn(-c2ccc(C#N)cc2Cl)c1C` [Compound 459] displayed a gall rating scale of 4.
The same measure for `COc1ccc(Cl)c(S(=O)(=O)NC(=O)c2nnn(-c3ccc(OC(F)F)cc3Cl)c2C)c1` [Compound 664]: 4.
As to `O=C(NS(=O)(=O)c1cc(C(F)(F)F)ccc1Cl)c1nnn(-c2ccc(F)cc2F)c1C(F)(F)F` [Compound 774], the gall rating scale is 4.
As for `Cc1ccc(F)cc1S(=O)(=O)NC(=O)c1nnn(-c2ccc(OC(F)(F)F)cc2Cl)c1C` [Compound 588], the figure is 4; as for `O=C(NS(=O)(=O)c1cc(C(F)(F)F)ccc1Cl)c1nnn(-c2ccc(Cl)cc2F)c1C(F)(F)F` [Compound 631], 4; as for `O=C(NS(=O)(=O)c1ccc(Cl)cc1Cl)c1nnn(-c2cc(Cl)c(Cl)cc2Cl)c1C(F)(F)F` [Compound 709], 4.
`CCc1c(C(=O)NS(=O)(=O)c2cc(C(F)(F)F)ccc2Cl)nnn1-c1ccc(Cl)cc1Cl` [Compound 231] showed a gall rating scale of 4.
As for `Cc1c(C(=O)NS(=O)(=O)c2ccccc2Cl)nnn1-c1ccc(F)cc1F` [Compound 689], the figure is 4; as for `Cc1c(Cl)cccc1S(=O)(=O)NC(=O)c1nnn(-c2ccc(C#N)cc2Cl)c1C` [Compound 513], 4; as for `Cc1ccccc1S(=O)(=O)NC(=O)c1nnn(-c2ccc(F)cc2F)c1C(F)(F)F` [Compound 776], 4.
Turning to `Cc1c(C(=O)NS(=O)(=O)c2ccccc2Cl)nnn1-c1cc(Cl)cc(Cl)c1` [Compound 7, N-((2-chlorophenyl)sulfonyl)-1-(3,5-dichlorophenyl)-5-methyl-1H-1,2,3-triazole-4-carboxamide], the gall rating scale turned out to be 4.
The same measure for `N#Cc1ccc(-n2nnc(C(=O)NS(=O)(=O)c3cc(C(F)(F)F)ccc3C(F)(F)F)c2C(F)(F)F)c(Cl)c1` [Compound 390, N-((2,5-bis(trifluoromethyl)phenyl)sulfonyl)-1-(2-chloro-4-cyanophenyl)-5-(trifluoromethyl)-1H-1,2,3-triazole-4-carboxamide]: 4; for `O=C(NS(=O)(=O)c1ccccc1C(F)(F)F)c1nnn(-c2cc(Cl)ccc2Cl)c1C(F)(F)F` [Compound 335, 1-(2,5-dichlorophenyl)-5-(trifluoromethyl)-N-((2-(trifluoromethyl)phenyl)sulfonyl)-1H-1,2,3-triazole-4-carboxamide]: 4.
